Patent US10919896B2, “Preparation and uses of pyrimidinone derivatives” (Cancer Research Technology Limited, priority 2016, dated 2021)

Legend:
Cdc7/Dbf4 = Cdc7/Dbf4 (Homo sapiens, UniProt O00311); assay: Cdc7 Biochemical Assay Method 3: Cdc7/Dbf4 Enzyme TR-FRET Assay measuring pS40MCM2; conditions: 1 μM ATP, read-out: Biochemical Method 3 (pIC50) (converted)
Description: This protocol describes a method for assaying a compounds' ability to inhibit Cdc7 activity by measuring pS40MCM2 levels in a Cdc7/Dbf4 Enzyme TR-FRET Assay.
2.5 nM Cdc7/Dbf4 was incubated with 100 nM of biotin-labelled peptide 35-TDALTS(pS)PGRDLP in the presence of 1 μM ATP at 25° C. for 120 minutes. The phosphorylation of the peptide was detected using TR-FRET. Anti-Mcm2 (pS40) antibody, Terbium anti-rabbit secondary antibody and Streptavidin-Alexa Fluor488 form the detection system.

Cdc7/ASK = Cdc7/ASK (Homo sapiens, UniProt O00311); assay: Cdc7 Biochemical Assay Method 1: 384 well ELISA, whole protein substrate MCM2, antibody against Phospho MCM2 (S53); design: purchased; conditions: 2 μM ATP, read-out: Biochemical Method 1 (pIC50) (converted)
Cdc7/ASK, sequence (O00311 whole entry): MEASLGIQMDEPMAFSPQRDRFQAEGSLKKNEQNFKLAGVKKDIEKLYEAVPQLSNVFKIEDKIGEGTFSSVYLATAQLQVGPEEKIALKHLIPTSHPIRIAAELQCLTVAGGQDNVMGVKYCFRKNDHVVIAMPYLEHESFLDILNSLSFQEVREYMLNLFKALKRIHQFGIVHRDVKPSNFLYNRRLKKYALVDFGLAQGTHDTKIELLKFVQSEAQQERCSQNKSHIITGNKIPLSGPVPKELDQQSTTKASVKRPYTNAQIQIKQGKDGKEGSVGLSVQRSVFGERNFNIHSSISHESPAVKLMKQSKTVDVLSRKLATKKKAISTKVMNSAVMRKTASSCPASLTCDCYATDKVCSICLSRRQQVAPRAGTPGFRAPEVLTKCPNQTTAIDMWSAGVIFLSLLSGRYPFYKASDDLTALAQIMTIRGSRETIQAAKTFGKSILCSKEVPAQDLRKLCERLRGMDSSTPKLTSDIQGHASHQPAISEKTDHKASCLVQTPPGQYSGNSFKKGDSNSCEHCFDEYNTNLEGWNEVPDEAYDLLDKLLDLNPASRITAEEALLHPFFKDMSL
Cdc7/ASK, sequence (Q9UBU7 whole entry partner): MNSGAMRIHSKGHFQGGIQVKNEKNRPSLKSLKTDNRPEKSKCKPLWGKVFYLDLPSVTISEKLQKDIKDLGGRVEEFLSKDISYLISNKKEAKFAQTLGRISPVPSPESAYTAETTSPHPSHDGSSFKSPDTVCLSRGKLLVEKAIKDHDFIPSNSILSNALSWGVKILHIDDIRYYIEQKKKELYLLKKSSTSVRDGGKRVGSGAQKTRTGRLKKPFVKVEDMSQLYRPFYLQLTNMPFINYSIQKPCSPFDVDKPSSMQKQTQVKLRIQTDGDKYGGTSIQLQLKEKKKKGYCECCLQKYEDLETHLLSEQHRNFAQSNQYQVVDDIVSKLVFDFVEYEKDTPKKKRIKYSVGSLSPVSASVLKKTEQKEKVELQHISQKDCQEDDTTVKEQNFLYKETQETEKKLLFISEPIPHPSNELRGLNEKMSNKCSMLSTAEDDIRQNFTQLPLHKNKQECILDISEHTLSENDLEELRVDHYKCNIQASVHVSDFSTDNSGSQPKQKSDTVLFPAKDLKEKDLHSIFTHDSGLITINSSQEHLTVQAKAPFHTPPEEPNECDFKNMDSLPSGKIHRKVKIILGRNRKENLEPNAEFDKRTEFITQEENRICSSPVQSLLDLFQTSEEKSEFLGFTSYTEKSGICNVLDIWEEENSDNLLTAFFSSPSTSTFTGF
Description: This protocol describes a method for assaying Cdc7/ASK for activity. The assay is a 384 well ELISA assay, utilising a whole protein substrate (MCM2) and an antibody against Phospho MCM2 (S53). This site is thought to be specific to Cdc7/ASK phosphorylation and the assay has been validated using knockout mutants. Reagents • TBS: 25 mM Tris pH 7.2, 150 mM NaCl. (Dilute 10× stock by 1:10). • Wash Buffer: TBS+0.05% Tween 20. (Add 100 mL 1 M Tris pH 7.2, 120 mL 5 M NaCl and 2 mL 100% Tween 20 per 4 L). • Kinase Reaction Buffer: 50 mM Tris-HCl pH 8.5, 10 mM MgCl2, 1 mM DTT. (Dilute 10× stock by 1:10 and add 100 μL 1M DTT per 100 mL prior to assay). • Diethanolamine Buffer: 1 M diethanolamine pH 9.8, 0.5 mM MgCl2. • Stop Solution: 1 M NaOH. • MCM2 was expressed and purified in-house and used in the assay at a final assay concentration of 436 ng/well. • Cdc7/ASK is purchased from commercial suppliers and used in the assay at a final assay concentration of 37.97 ng/well or 20.63 nM. • ATP used as a final assay concentration of 2 μM. • Primary Antibody: Rabbit anti-Phospho MCM2 (S53 Antibody (BL3353)), is purchased from commercial suppliers at 0.2 mg/mL and used at a final assay concentration by diluting 1:800 in TBS. • Secondary Antibody: Anti-Rabbit/AP Antibody is supplied is purchased from commercial suppliers at 1 mg/mL and used at a final assay concentration by diluting 1:2000 in TBS. • Development Reagent: Dissolve one 20 mg PNPP tablet (Sigma, product […], 20 mg per tablet) per 20 mL diethanolamine Buffer (or one 5 mg PNPP tablet per 5 mL diethanolamine buffer). Cover in foil and leave shaking on a roller shaker at room temperature for up to an hour to dissolve. Methods • 1. Add 20 μL 1× working stock of Substrate (MCM2) in TBS to all wells of a clear, 384 well, Nickel-chelate microplate to give a final concentration of […]. Incubate at room temperature for at least 1 hour. Plates can be pre-coated for 1 hour and stored at 4° C. for up to 8 days. • 2. Wash with TBS+0.05% Tween 20 (80 μL×3). • 3. Add 2 μL 10× test compounds, including the positive control, in 40% DMSO/water to 'test' wells. Add 2 μL 40% DMSO/water to 'control' and 'blank' wells. The final DMSO concentration will be 4%. • 4. Add 13 μL CDC7/ASK Kinase (1.5× stock) in Kinase Reaction Buffer to 'test' and 'control' wells to give a final concentration of […]. Add 13 μL Kinase Reaction Buffer to 'blank' wells. • 5. Add 5 μL ATP (4× stock) in Kinase Reaction Buffer to all wells to give a final concentration of 2 μM. • 6. Incubate at room temperature for 90 minutes. • 7. Wash with TBS+0.05% Tween 20 (80 μL×3). • 8. Add 20 μL 1× working solution of Primary Antibody in TBS to all wells. Incubate at room temperature for 30 minutes. • 9. Wash with TBS+0.05% Tween 20 (80 μL×3). • 10. Add 20 μL 1× working solution of Secondary Antibody in TBS to all wells. Incubate at room temperature for 30 minutes. • 11. Wash with TBS+0.05% Tween 20 (80 μL×3). • 12. Add 20 μL 1× Development Reagent to all wells. • 13. Incubate at room temperature for 2 hours. Stop the reaction by adding 20 μL Stop Solution to all wells and record Absorbance on a Pherastar plate reader. Percentage inhibition values were calculated from absorbance values, using the no compound (DMSO) and no enzyme control values as 0% and 100% inhibition, respectively. IC50 determination was performed with ExcelFit software (IDBS) using curve fit 205. Z' factors were determined for each plate tested and were all above 0.5. Method 2

Cdc7/Dbf4, sequence (O00311 whole entry): as the sequence (O00311 whole entry) above
Cdc7/Dbf4, sequence (Q9UBU7 whole entry partner): as the sequence (Q9UBU7 whole entry partner) above

Structure (SMILES) | IC50 (Cdc7/Dbf4) [nM] | IC50 (Cdc7/ASK) [nM]
CC(C)(O)[C@H]1CN(c2nc(-c3ccnc(F)c3)[nH]c(=O)c2Cl)CCN1 [Compound 187] | 1.86 | –
O=c1[nH]c(-c2ccnc(F)c2)nc(N2CC3(CNC3)C2)c1Cl [Compound 198] | 66.1 | –
O=c1[nH]c(-c2ccnc(F)c2)nc(O[C@H]2CCOC2)c1Cl [Compound 200] | 8.13 | –
O=c1[nH]c(-c2ccnc(F)c2)nc(N2CCC[C@H](Nc3ccccc3)C2)c1Cl [Compound 209] | 85.1 | –
CN(c1nc(-c2ccnc(F)c2)[nH]c(=O)c1Cl)C1CCNCC1(C)C (stereo not drawn) [Compound 210] | 4.37 | –
CC1(C)CNCCC1Nc1nc(-c2ccnc(F)c2)[nH]c(=O)c1Cl (stereo not drawn) [Compound 211] | 17.4 | –
O=c1[nH]c(-c2ccnc(F)c2)nc(N2CC[C@@H](O)C2)c1Cl [Compound 214] | 14.8 | –
O=c1[nH]c(-c2ccnc(F)c2)nc(N2CC[C@H](O)C2)c1Cl [Compound 215] | 14.1 | –
O=c1[nH]c(-c2ccnc(F)c2)nc(N2CCOC3CNCC32)c1Cl (stereo not drawn) [Compound 216] | 1.7 | –
O=c1[nH]c(-c2ccnc(F)c2)nc(N2CCC3(CCCN3)C2)c1Cl (stereo not drawn) [Compound 217] | 45.7 | –
O=c1[nH]c(-c2ccnc(F)c2)nc(N2CCC3(CCNC3)C2)c1Cl (stereo not drawn) [Compound 218] | 8.13 | –
O=c1[nH]c(-c2ccnc(F)c2)nc(N2CCC3(CCCNC3)C2)c1Cl (stereo not drawn) [Compound 220] | 15.5 | –
O=c1[nH]c(-c2ccnc(F)c2)nc(NC2CCNCC2)c1Cl [Compound 222] | 13.5 | –
O=c1[nH]c(-c2ccnc(F)c2)nc(N2CCC3CNCCC32)c1Cl (stereo not drawn) [Compound 225] | 2.09 | –
O=c1[nH]c(-c2ccnc(F)c2)nc(N2CC3CNCC3C2)c1Cl (stereo not drawn) [Compound 226] | 3.02 | –
O=c1[nH]c(-c2ccnc(F)c2)nc(N2CCOC3(CCNCC3)C2)c1Cl [Compound 227] | 2.24 | –
O=c1[nH]c(-c2ccnc(F)c2)nc(N2CCC(C3CCOCC3)C2)c1Cl (stereo not drawn) [Compound 228] | 53.7 | –
O=c1[nH]c(-c2ccnc(F)c2)nc(N2C[C@H]3NCCO[C@@H]3C2)c1Cl [Compound 237] | 7.94 | –
O=c1[nH]c(-c2ccnc(F)c2)nc(N2CCC3(CCCO3)CC2)c1Cl [Compound 238] | 5.25 | –
CN(C)C(=O)N1CCN(c2nc(-c3ccnc(F)c3)[nH]c(=O)c2Cl)CC1 [Compound 240] | 3.72 | –
O=c1[nH]c(-c2ccnc(F)c2)nc(N2CCC3(CCNC3)CC2)c1Cl [Compound 242] | 1.15 | –
O=c1[nH]c(-c2ccnc(F)c2)nc(N2CCC3(CNC3)C2)c1Cl [Compound 245] | 2.04 | –
O=c1[nH]c(-c2ccnc(F)c2)nc(N2CCCC2CN2CCOCC2)c1Cl (stereo not drawn) [Compound 246] | 1000 | –
NC(=O)[C@@H]1CCN(c2nc(-c3ccnc(F)c3)[nH]c(=O)c2Cl)C1 [Compound 249] | 9.33 | –
O=c1[nH]c(-c2ccnc(F)c2)nc(N2CCCC3(CCCN3)C2)c1Cl (stereo not drawn) [Compound 250] | 9.77 | –
CNC(=O)C1CCCN(c2nc(-c3ccnc(F)c3)[nH]c(=O)c2Cl)C1 (stereo not drawn) [Compound 253] | 7.41 | –
CC(C)C(=O)NC1CCN(c2nc(-c3ccnc(F)c3)[nH]c(=O)c2Cl)CC1 [Compound 254] | 2.4 | –

The next lines start with the values.

IC50 (Cdc7/Dbf4) [nM] | IC50 (Cdc7/ASK) [nM] | Structure (SMILES)
1.62 | – | O=c1[nH]c(-c2ccnc(F)c2)nc(N2C[C@H](O)C[C@H](O)C2)c1Cl [Compound 189]
3.72 | – | O=c1[nH]c(-c2ccnc(F)c2)nc(SC2CCOCC2)c1Cl [Compound 191]
2.88 | – | O=c1[nH]c(-c2ccnc(F)c2)nc(SC2CCNCC2)c1Cl [Compound 193]
14.5 | – | O=c1[nH]c(-c2ccnc(F)c2)nc(OC2CNC2)c1Cl [Compound 194]
1.32 | – | N[C@H]1CC[C@@H](Oc2nc(-c3ccnc(F)c3)[nH]c(=O)c2Cl)C1 [Compound 195]
389 | – | O=c1[nH]c(-c2ccnc(F)c2)nc(OC2COC2)c1Cl [Compound 199]
10 | – | O=c1[nH]c(-c2ccnc(F)c2)nc(N2CCOC(CN3CCCCC3)C2)c1Cl (stereo not drawn) [Compound 202]
4.07 | – | O=c1[nH]c(-c2ccnc(F)c2)nc(N2CCCC(F)(F)CC2)c1Cl [Compound 204]
1.29 | – | O=c1[nH]c(-c2ccnc(F)c2)nc(N2CCOCC(O)C2)c1Cl (stereo not drawn) [Compound 207]
79.4 | – | O=c1[nH]c(-c2ccnc(F)c2)nc(N2CCC(CN3CCOCC3)C2)c1Cl (stereo not drawn) [Compound 212]
53.7 | – | O=c1[nH]c(-c2ccnc(F)c2)nc(N2CCC3(CCCCN3)C2)c1Cl (stereo not drawn) [Compound 213]
6.76 | – | NC[C@H]1CCN(c2nc(-c3ccnc(F)c3)[nH]c(=O)c2Cl)C1 [Compound 219]
724 | – | O=c1[nH]c(-c2ccnc(F)c2)nc(NCC2COCCN2)c1Cl (stereo not drawn) [Compound 224]
8.51 | – | CN(c1nc(-c2ccnc(F)c2)[nH]c(=O)c1Cl)C1CCOCC1 [Compound 229]
6.61 | – | O=c1[nH]c(-c2ccnc(F)c2)nc(N2CCC3(CCNCC3)C2)c1Cl [Compound 230]
2.88 | – | CNC(=O)C1CCN(c2nc(-c3ccnc(F)c3)[nH]c(=O)c2Cl)CC1 [Compound 231]
2.19 | – | O=C1NC(=O)C2(CCN(c3nc(-c4ccnc(F)c4)[nH]c(=O)c3Cl)CC2)N1 [Compound 233]
14.5 | – | O=c1[nH]c(-c2ccnc(F)c2)nc(N2CCC3(CC2)OCCO3)c1Cl [Compound 236]
1.1 | – | NC(=O)N1CCN(c2nc(-c3ccnc(F)c3)[nH]c(=O)c2Cl)CC1 [Compound 239]
2.19 | – | O=c1[nH]c(-c2ccnc(F)c2)nc(N2CCC3(CCCN3)CC2)c1Cl [Compound 241]
4.57 | – | NC(=O)[C@H]1CCCN1c1nc(-c2ccnc(F)c2)[nH]c(=O)c1Cl [Compound 247]
42.7 | – | NC(=O)[C@@H]1CCCN1c1nc(-c2ccnc(F)c2)[nH]c(=O)c1Cl [Compound 248]
4.07 | – | NC(=O)[C@H]1CCN(c2nc(-c3ccnc(F)c3)[nH]c(=O)c2Cl)C1 [Compound 251]
– | 166 | O=c1[nH]c(-c2ccncc2)nc(C2=CCOCC2)c1Cl [Compound 404, 5-chloro-4-(3,6-dihydro-2H-pyran-4-yl)-2-(4-pyridyl)-1H-pyrimidin-6-one]
– | 562 | CC(C)(C)OC(=O)N1CC=C(c2nc(-c3ccncc3)[nH]c(=O)c2Cl)CC1 [Compound 405, tert-butyl 4-[5-chloro-6-oxo-2-(4-pyridyl)-1H-pyrimidin-4-yl]-3,6-dihydro-2H-pyridine-1-carboxylate]
– | 851 | O=c1[nH]c(-c2ccncc2)nc(C2CCOCC2)c1C(F)(F)F [Compound 406, 2-(4-pyridyl)-4-tetrahydropyran-4-yl-5-(trifluoromethyl)-1H-pyrimidin-6-one]
– | 60.3 | CC(C)(O)[C@@H]1CN(c2nc(-c3ccncc3)[nH]c(=O)c2Cl)CCN1 [Compound 407, 5-chloro-4-[(3S)-3-(1-hydroxy-1-methyl-ethyl)piperazin-1-yl]-2-(4-pyridyl)-1H-pyrimidin-6-one]
